Measurements: PubChem BioAssay (NCI)
Where “and” joins values, the source holds several entries; their conditions need not be identical. Equal entries are not always repeated.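 Protocol summary: plate cells (96-well), add compound at 5 concentrations, incubate 48 h, interpolate endpoints linearly. At the TGI there is no net growth.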 Where a SMILES comes first, the peptide text is derived from it. The star is where a group is joined. Cbz = O=C(OCc1ccccc1)*

Assays:
Experiment in all cases: NCI-60 cell line screen, 48 h
A549 NSCLC = test system: A549 NSCLC
HCT-116 colon = test system: HCT-116 colon
HS 578T breast = test system: HS 578T breast
HT29 colon = test system: HT29 colon
LOX IMVI melanoma = test system: LOX IMVI melanoma
M14 melanoma = test system: M14 melanoma
NCI-H522 lung = test system: NCI-H522 lung
OVCAR-3 ovarian = test system: OVCAR-3 ovarian
OVCAR-5 ovarian = test system: OVCAR-5 ovarian
SF-268 CNS = test system: SF-268 CNS
TK-10 renal = test system: TK-10 renal
RPMI-8226 leukemia = test system: RPMI-8226 leukemia

SMILES | TGI (A549 NSCLC) | TGI (HCT-116 colon) | TGI (HS 578T breast) | TGI (HT29 colon) | TGI (LOX IMVI melanoma) | TGI (M14 melanoma) | TGI (NCI-H522 lung) | TGI (OVCAR-3 ovarian) | TGI (OVCAR-5 ovarian) | TGI (SF-268 CNS) | TGI (TK-10 renal) | TGI (RPMI-8226 leukemia)
C(=Nc1ccc2c(c1)Cc1ccccc1-2)c1ccccn1 | > 100 µM | > 100 µM | > 100 µM | > 100 µM | > 100 µM | > 100 µM | > 100 µM | > 100 µM | > 100 µM | > 100 µM | > 100 µM | 
Cn1nnnc1SC(F)(F)c1nc2ccccc2o1 | > 100 µM | > 100 µM | > 100 µM | > 100 µM |  | > 100 µM | > 100 µM | > 100 µM | > 100 µM | > 100 µM | > 100 µM | > 100 µM
CN1CCCOC(c2ccc(Cl)cc2)O1 (configuration not stated) | > 100 µM | > 100 µM |  | > 100 µM | > 100 µM | > 100 µM | > 100 µM | > 100 µM | > 100 µM | > 100 µM | > 100 µM | 
CC(=O)O[C@]12CCCCCC1C1(O)C(O)CCCCC12 (some centres not stated) | > 100 µM |  |  | > 100 µM | > 100 µM | > 100 µM | > 100 µM |  |  | > 100 µM | > 100 µM | > 100 µM
CN1CC=C(c2c(N)nc(N)[nH]c2=O)CC1 | > 100 µM | > 100 µM | > 100 µM | > 100 µM |  | > 100 µM | > 100 µM | > 100 µM | > 100 µM | > 100 µM |  | > 100 µM
CCOC(=O)CCC(NC(=O)OCc1ccccc1)C(=O)NC(CCC(=O)OCC)C(=O)OCC (configuration not stated) (Cbz-Glu(OEt)-Glu(OEt)-OEt; configuration not given here) | > 100 µM | > 100 µM | > 100 µM | > 100 µM | > 100 µM | > 100 µM | > 100 µM | > 100 µM | > 100 µM | > 100 µM |  | > 100 µM
Cc1ccc(NC(=O)C(=O)C2C(=O)NC(=O)NC2=O)cc1C | > 100 µM | > 100 µM |  | > 100 µM | > 100 µM | > 100 µM | > 100 µM | > 100 µM | > 100 µM | > 100 µM | > 100 µM | > 100 µM
COc1cccc(-c2nc(-c3cnccn3)n(C/C=C/c3ccccc3)n2)c1 | > 10 µM |  | > 10 µM | > 10 µM | > 10 µM | > 10 µM | > 10 µM | > 10 µM | > 10 µM | > 10 µM | > 10 µM | 
O=Cc1ccc(-c2ccc(-c3ccc(CO)s3)o2)s1 | 98.8 µM | > 40.1 µM | 59.5 µM | > 53.2 µM | 16.2 µM | > 70.6 µM | 47.7 µM |  |  | > 76.1 µM | 0.627 µM | 
CC(NC(=O)Cc1ccccc1)NC(=O)C(C)C(=O)NCc1ccccc1 (configuration not stated) | > 100 µM | > 100 µM | 83.3 µM | > 100 µM |  | > 100 µM | > 100 µM |  | > 100 µM | > 100 µM | > 100 µM | > 100 µM
Cc1cc(C)nc(NC(P(=O)(O)O)P(=O)(O)O)n1 | > 100 µM | > 100 µM | > 100 µM | > 100 µM | > 100 µM | > 100 µM | > 100 µM | > 100 µM | > 100 µM | > 100 µM | > 100 µM | 
CCC1CC(O)c2c(O)c3c(c(O)c2C1O)C(=O)c1cccc(O)c1C3=O (configuration not stated) (tested in a mixture with another compound) |  | 0.741 µM | 0.331 µM | 0.181 µM and 0.202 µM | 0.0509 µM | 0.0434 µM and 0.0173 µM | 0.0658 µM | 0.0721 µM and 0.0312 µM | 0.0301 µM | 0.501 µM |  | 0.0663 µM
O=c1[nH]nc(Cc2ccc(Cl)cc2)n1/N=C/c1cccs1 | > 100 µM | > 100 µM |  | 40.2 µM |  | > 100 µM | 68.8 µM | > 100 µM | > 100 µM | 42.9 µM |  | > 100 µM
COc1ccc(C2(CC(C)C)CCN(S(=O)(=O)c3ccc(C)cc3)C2)cc1OC (configuration not stated) | > 100 µM | 92.6 µM |  | > 100 µM | 74.3 µM | > 100 µM | > 100 µM | 55.8 µM | > 100 µM | 95.4 µM | > 100 µM | 
CCOc1cc(NC(C)=O)ccc1C(=O)NNS(=O)(=O)c1ccc(NC(C)=O)cc1 | > 100 µM | > 100 µM | > 100 µM | > 100 µM | > 100 µM | > 100 µM | > 100 µM | > 100 µM | > 100 µM | > 100 µM |  | 86.4 µM
CS(=O)(=O)N1CC(CCl)c2ccc(O)cc21 (configuration not stated) | 11.1 µM | 11.1 µM | 90.9 µM | 14.2 µM | 14.4 µM |  | 5.8 µM | 9.3 µM | 16.3 µM | 3.61 µM | 6.98 µM | 6.91 µM
O=P1(Cc2ccccc2)N(Cc2ccccc2)[C@@H]2CCCC[C@H]2N1Cc1ccccc1 | 19.7 µM | 20 µM | 26.5 µM | 18.6 µM | 26.1 µM | 16.6 µM | 14.4 µM | 20.9 µM | 24.7 µM | 24.3 µM | 26.7 µM | 
C/C=C\C(CC(=O)NCC(=O)c1c[nH]c2ccccc12)CC(=O)OC (configuration not stated) | > 100 µM | > 100 µM | > 100 µM | > 100 µM |  | > 100 µM | > 100 µM | > 100 µM | > 100 µM | > 100 µM | > 100 µM | > 100 µM
O=C1CC(=O)NC(=NN2C(=O)/C(=C/c3ccc(Cl)c(Cl)c3)N=C2c2ccccc2)N1 | > 100 µM | 38 µM | 50.9 µM | 44.4 µM |  | 83.5 µM | 86 µM | 49.4 µM | > 100 µM | > 100 µM | > 100 µM | 47 µM
O=C1OCC2OC(=O)c3cc(O)c(O)c(O)c3-c3c(O)c(O)c(O)c4c3C(=O)OC(C2OC(=O)c2cc(O)c(O)c(O)c2-c2c1cc(O)c(O)c2O)C1OC(=O)C2C4=C(O)C(=O)C23Oc2cc(O)c4c(c2[C@H]13)O[C@H](c1ccc(O)c(O)c1)[C@@H](O)C4 (some centres not stated) | > 100 µM | 40.3 µM | > 100 µM | 42.7 µM | 38.3 µM | 29.6 µM | 50.4 µM | 83.4 µM | 36.2 µM | 50.7 µM |  | 64.4 µM
